The source of these data is US10821115B2, “Compounds that inhibit Mcl-1 protein” (priority 2017, dated 2020).

The test system of this assay is human multiple myeloma cell line, OPM-2. The assay can be described thus: Cell viability assay (OPM-2 10 FBS), CellTiter-Glo. In kind it is cell-based. The procedure: Cell viability assay (OPM-2 10 FBS)
The human multiple myeloma cell line, OPM-2, was cultured in complete growth medium containing RPMI 1640 and 10% fetal bovine serum (FBS). Cells were seeded into 384-well plates at 3000 cells/well density in complete growth medium containing 10% FBS, and incubated for 16 h with serially diluted test compounds in a 37° C. incubator with 5% CO2. Cell viability was tested using CellTiter-Glo® assay (Promega, Madison, Wis.) according to the manufacturer recommendations. Luminescence was determined using an EnVision® Multilabel plate reader 25 min after the addition of detection reagent. IC50 values were then calculated with Xlfit using a logistical 4-parameter fit model in GraphPad Prism (GraphPad Software, San Diego, Calif.) or in Genedata Screener® (Genedata, Basel, Switzerland).

Setting [1] is: read-out: OPM-2 10% FBS IC50 IP, OPM-2 cells, 10% FBS, 16 h incubation.
[2] abbreviates: Homo sapiens, OPM-2, 16 h, read-out: OPM-2 10% FBS IC50 IP, OPM-2 cells, 10% FBS, 16 h incubation.

Read-outs that look alike come from different tables or passages of the source.

In general, IC50 refers to the midpoint of a concentration-inhibition curve. `CO[C@@]1(CN2CCN3CCN(C)C[C@@H]3C2)/C=C/C[C@H](C)[C@@H](C)S(=O)(=O)NC(=O)c2ccc3c(c2)N(C[C@@H]2CC[C@H]21)C[C@@]1(CCCc2cc(Cl)ccc21)CO3` (single isomer, unassigned) [Example 217]: the IC50 under setting [1] came to 192 nM.

Take `CCO[C@]1(CN2CCN(C3COC3)CC2)/C=C/C[C@H](C)[C@@H](CCOC)S(=O)(=O)NC(=O)c2ccc3c(c2)N(C[C@@H]2CC[C@H]21)C[C@@]1(CCCc2cc(Cl)ccc21)CO3` [Example 14, (1S,3′R,6′R,7′R,8′E,11′S,12′R)-6-chloro-7′-ethoxy-12′-(2-methoxyethyl)-11′-methyl-7′-((4-(3-oxetanyl)-1-piperazinyl)methyl)-3,4-dihydro-2H,15′H-spiro[naphthalene-1,22′-[20]oxa[13]thia[1,14]diazatetracyclo[14.7.2.0-3,6˜.0˜19,24˜]pentacosa[8,16,18,24]tetraen]-15′-one 13′,13′-dioxide]: the IC50 under setting [2] worked out at 59 nM.

As for `COCC[C@@H]1[C@@H](C)C/C=C/[C@@](CN2CCN(C(C)C)[C@H](C)C2)(OC)[C@@H]2CC[C@H]2CN2C[C@@]3(CCCc4cc(Cl)ccc43)COc3ccc(cc32)C(=O)NS1(=O)=O` [Example 12, (1S,3′R,6′R,7′R,8′E,11′S,12′R)-6-chloro-7′-methoxy-12′-(2-methoxyethyl)-11′-methyl-7′-(((3R)-3-methyl-4-(1-methylethyl)-1-piperazinyl)methyl)-3,4-dihydro-2H, 15′H-spiro[naphthalene-1,22′-[20]oxa[13]thia[1,14]diazatetracyclo[14.7.2.0-3,6˜.0˜19,24˜]pentacosa[8,16,18,24]tetraen]-15′-one 13′,13′-dioxide], the IC50 under setting [2] came to 22 nM.

In the case of `C[C@@H]1[C@@H](C)C/C=C/[C@](O)(c2ccc(F)nc2)[C@@H]2CC[C@H]2CN2C[C@@]3(CCCc4cc(Cl)ccc43)COc3ccc(cc32)C(=O)NS1(=O)=O` [Example 100420, (1S,3′R,6′R,7′R,8′E,11′S,12′R)-6-chloro-7′-(6-fluoro-3-pyridinyl)-7′-hydroxy-11′,12′-dimethyl-3,4-dihydro-2H,15′H-spiro[naphthalene-1,22′-[20]oxa[13]thia[1,14]diazatetracyclo [14.7.2.0~3,6~.0~19,24~]pentacosa[8,16,18,24]tetraen]-15′-one 13′,13′-dioxide], the IC50 (Homo sapiens, OPM-2, 16 h, read-out: OPM-2 10% FBS IC50 IP, OPM-2 cells, 10% FBS, 16 h, CellTiter-Glo) turned out to be 161 nM.

Take `CO[C@@]1(CN2CCN(CC(=O)O)CC2)/C=C/C[C@H](C)[C@@H](C)S(=O)(=O)NC(=O)c2ccc3c(c2)N(C[C@@H]2CC[C@H]21)C[C@@]1(CCCc2cc(Cl)ccc21)CO3` [Example 270, (4-(((1S,3′R,6′R,7′S,8′E,11′S,12′R)-6-CHLORO-7′-METHOXY-11′,12′-DIMETHYL-13′,13′-DIOXIDO-15′-OXO-3,4-DIHYDRO-2H-SPIRO[NAPHTHALENE-1,22′-[20]OXA[13]THIA[1,14]DIAZATETRACYCLO[14.7.2.0-3,6˜.0˜19,24˜]PENT ACOSA[8,16,18,24]TETRAEN]-7′-YL)METHYL)-1-PIPERAZINYL)ACETIC ACID]: the IC50 under setting [2] was 4860 nM.

On to `CO[C@@]1(CN2CCN(C3CCOCC3)CC2)/C=C/C[C@H](C)[C@@H](C)S(=O)(=O)NC(=O)c2ccc3c(c2)N(C[C@@H]2CC[C@H]21)C[C@@]1(CCCc2cc(Cl)ccc21)CO3` [Example 262, (1S,3′R,6′R,7′S,8′E,11′S,12′R)-6-chloro-7′-methoxy-11′,12′-dimethyl-7′-((4-(tetrahydro-2H-pyran-4-yl)-1-piperazinyl)methyl)-3,4-dihydro-2H,15′H-spiro[naphthalene-1,22′-[20]oxa[13]thia[1,14]diazatetracyclo [14.7.2.0~3,6~.0~19,24~]pentacosa[8,16,18,24]tetraen]-15′-one 13′,13′-dioxide], for which the IC50 under setting [2] was 89 nM.

In the case of `CO[C@@]1(CN2CCN3CCN(C(C)=O)C[C@@H]3C2)/C=C/C[C@H](C)[C@@H](C)S(=O)(=O)NC(=O)c2ccc3c(c2)N(C[C@@H]2CC[C@H]21)C[C@@]1(CCCc2cc(Cl)ccc21)CO3` (single isomer, unassigned) [Example 225], the IC50 under setting [1] worked out at 280 nM.
